Reference: ChEMBL document CHEMBL1201862, “PubChem BioAssay data set” (2004)
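Test compounds were applied to cells in 96-well plates for 48 hours at 5 doses. GI50 = concentration required for 50% inhibition of growth.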 The source made the active and inactive calls. Rule as the data show it: active = GI50 up to about 1.1 µM and inactive = higher.

What was measured:
Assay in all cases: inhibition of tumour cell growth, NCI panel, 48 h
A549 = test system: A549
ACHN = test system: ACHN
COLO 205 = test system: COLO 205
DU-145 = test system: DU-145
EKVX = test system: EKVX
HCT-116 = test system: HCT-116
HT-29 = test system: HT-29
IGROV-1 = test system: IGROV-1
MCF7 = test system: MCF7
NCI-H460 = test system: NCI-H460
NCI-H522 = test system: NCI-H522
OVCAR-3 = test system: OVCAR-3
RPMI-8226 = test system: RPMI-8226
SF-295 = test system: SF-295
SK-OV-3 = test system: SK-OV-3
SNB-75 = test system: SNB-75
T47D = test system: T47D
TK-10 = test system: TK-10
UACC-62 = test system: UACC-62
DMS-114 = test system: DMS-114

Row | SMILES | GI50 (A549) | GI50 (ACHN) | GI50 (COLO 205) | GI50 (DU-145) | GI50 (EKVX) | GI50 (HCT-116) | GI50 (HT-29) | GI50 (IGROV-1) | GI50 (MCF7) | GI50 (NCI-H460) | GI50 (NCI-H522) | GI50 (OVCAR-3) | GI50 (RPMI-8226) | GI50 (SF-295) | GI50 (SK-OV-3) | GI50 (SNB-75) | GI50 (T47D) | GI50 (TK-10) | GI50 (UACC-62) | GI50 (DMS-114)
1 | COc1c(O)ccc(C2=Cc3ccc(O)cc3OC2)c1OC | 24.8 µM (inactive) | 6.56 µM (inactive) | 28.2 µM (inactive) | 26.7 µM (inactive) | 15.1 µM (inactive) | 24.3 µM (inactive) | 30.4 µM (inactive) | 25.8 µM (inactive) | 32.4 µM (inactive) | 31 µM (inactive) | 2.34 µM (inactive) | 14.9 µM (inactive) | 3.51 µM (inactive) | 22.8 µM (inactive) | 24 µM (inactive) | 14.9 µM (inactive) | 25.6 µM (inactive) | 55.2 µM (inactive) | 16.2 µM (inactive) | –
2 | CNC(=O)CN(C)C(=O)CCC(=O)N(C)C | > 100 µM (inactive) | > 100 µM (inactive) | > 100 µM (inactive) | > 100 µM (inactive) | > 100 µM (inactive) | > 100 µM (inactive) | > 100 µM (inactive) | > 100 µM (inactive) | > 100 µM (inactive) | > 100 µM (inactive) | > 100 µM (inactive) | > 100 µM (inactive) | > 100 µM (inactive) | > 100 µM (inactive) | > 100 µM (inactive) | > 100 µM (inactive) | > 100 µM (inactive) | > 100 µM (inactive) | > 100 µM (inactive) | –
3 | O=[N+]([O-])c1ccc(Cl)cc1/C=N/C12CC3CC(CC(C3)C1)C2 | > 96.8 µM (inactive) | > 87.9 µM (inactive) | 45 µM (inactive) | > 100 µM (inactive) | > 100 µM (inactive) | 5.24 µM (inactive) | 30.6 µM (inactive) | 55.7 µM (inactive) | 31.3 µM (inactive) | > 74 µM (inactive) | > 100 µM (inactive) | 46.9 µM (inactive) | 20.2 µM (inactive) | 57.3 µM (inactive) | > 100 µM (inactive) | > 68.1 µM (inactive) | 37.4 µM (inactive) | > 100 µM (inactive) | 30.6 µM (inactive) | –
4 | O=C(O)c1ccc2c(c1)CC1(C2)Cc2cc3c(cc2C1=O)CCC3 (stereo unspecified) | 69 µM (inactive) | > 100 µM (inactive) | > 100 µM (inactive) | > 100 µM (inactive) | > 100 µM (inactive) | > 100 µM (inactive) | > 100 µM (inactive) | > 100 µM (inactive) | > 100 µM (inactive) | > 100 µM (inactive) | > 100 µM (inactive) | > 100 µM (inactive) | > 100 µM (inactive) | 93.3 µM (inactive) | > 100 µM (inactive) | 56 µM (inactive) | 34.4 µM (inactive) | > 100 µM (inactive) | > 100 µM (inactive) | –
5 | C1CSCCSCCSCCSCCS1 | > 100 µM (inactive) | > 100 µM (inactive) | > 100 µM (inactive) | > 100 µM (inactive) | > 100 µM (inactive) | > 100 µM (inactive) | > 100 µM (inactive) | > 100 µM (inactive) | > 100 µM (inactive) | > 100 µM (inactive) | > 100 µM (inactive) | > 100 µM (inactive) | > 100 µM (inactive) | > 100 µM (inactive) | > 100 µM (inactive) | > 100 µM (inactive) | > 100 µM (inactive) | > 100 µM (inactive) | > 100 µM (inactive) | –
6 | O=C(O)c1nn(-c2ccccc2-c2nnc(O)nc2O)c(=O)[nH]c1=O | > 100 µM (inactive) | > 100 µM (inactive) | > 100 µM (inactive) | > 100 µM (inactive) | > 100 µM (inactive) | > 100 µM (inactive) | > 100 µM (inactive) | > 100 µM (inactive) | > 100 µM (inactive) | > 100 µM (inactive) | > 100 µM (inactive) | > 100 µM (inactive) | > 100 µM (inactive) | > 100 µM (inactive) | > 100 µM (inactive) | > 100 µM (inactive) | > 100 µM (inactive) | > 100 µM (inactive) | > 100 µM (inactive) | –
7 | Nc1nc(Sc2ccc([N+](=O)[O-])c3nonc23)c2nc[nH]c2n1 | 3.69 µM (inactive) | 2.22 µM (inactive) | 1.61 µM (inactive) | 0.705 µM (active) | 1.85 µM (inactive) | 0.622 µM (active) | 1.59 µM (inactive) | 3.57 µM (inactive) | 0.593 µM (active) | 0.627 µM (active) | 0.733 µM (active) | 0.624 µM (active) | 0.31 µM (active) | 0.701 µM (active) | 0.425 µM (active) | 3.31 µM (inactive) | 1.2 µM (inactive) | 0.687 µM (active) | 0.43 µM (active) | –
8 | CC(C)(C)OC(=O)NCCC1CN(C(=O)c2ccccc2)c2ccccc21 (stereo unspecified) | 25.3 µM (inactive) | 32.7 µM (inactive) | 19.7 µM (inactive) | 45.8 µM (inactive) | 25.6 µM (inactive) | 17.8 µM (inactive) | 23.2 µM (inactive) | 29.5 µM (inactive) | 28.2 µM (inactive) | 22.9 µM (inactive) | 22.6 µM (inactive) | 15.9 µM (inactive) | 19.7 µM (inactive) | 29.4 µM (inactive) | > 100 µM (inactive) | 28.7 µM (inactive) | 25.2 µM (inactive) | 56.2 µM (inactive) | 19 µM (inactive) | –
9 | NC(=S)N/N=C(/CC(=O)c1ccc([N+](=O)[O-])cc1)C(=O)Nc1ncc([N+](=O)[O-])s1 | > 100 µM (inactive) | > 100 µM (inactive) | > 100 µM (inactive) | – | > 100 µM (inactive) | > 100 µM (inactive) | > 100 µM (inactive) | > 100 µM (inactive) | – | > 100 µM (inactive) | – | > 100 µM (inactive) | > 100 µM (inactive) | > 100 µM (inactive) | – | > 100 µM (inactive) | – | > 100 µM (inactive) | 52.7 µM (inactive) | 68.1 µM (inactive)
10 | C[C@]12CC[C@@H]3c4ccc(O)cc4CC[C@H]3[C@@H]1C/C(=C\c1ccncc1)[C@@H]2O | 7.36 µM (inactive) | 11.2 µM (inactive) | 5.18 µM (inactive) | 19.1 µM (inactive) | 18.5 µM (inactive) | 10.9 µM (inactive) | 15.1 µM (inactive) | 7.43 µM (inactive) | 10.1 µM (inactive) | 6.32 µM (inactive) | 3.73 µM (inactive) | 11.5 µM (inactive) | 3.13 µM (inactive) | 4.29 µM (inactive) | 26.2 µM (inactive) | 2.98 µM (inactive) | 3.55 µM (inactive) | 22.9 µM (inactive) | 10.8 µM (inactive) | –
11 | O=C(O)C1=NN(c2ccc(S(=O)(=O)O)cc2)C2(C1)C(Cl)C(=O)N2c1nc2ccccc2s1 (stereo unspecified) | 16.6 µM (inactive) | 17 µM (inactive) | 18.6 µM (inactive) | 19.1 µM (inactive) | 16 µM (inactive) | 16.5 µM (inactive) | 17.8 µM (inactive) | 7.83 µM (inactive) | 14.4 µM (inactive) | 16 µM (inactive) | 10.7 µM (inactive) | 12.8 µM (inactive) | 13.1 µM (inactive) | 15.6 µM (inactive) | 15.6 µM (inactive) | 13.5 µM (inactive) | 20.5 µM (inactive) | 18 µM (inactive) | 14.4 µM (inactive) | –
12 | COC(=O)C1=C(C)NC(C)=C(C(=O)OC)C1c1ccc(N=O)cc1 | 24.5 µM (inactive) | 13.8 µM (inactive) | 8.77 µM (inactive) | 12.9 µM (inactive) | 17 µM (inactive) | 6.12 µM (inactive) | 13.6 µM (inactive) | 16.1 µM (inactive) | 17.9 µM (inactive) | 18.9 µM (inactive) | 1.15 µM (inactive) | 13.6 µM (inactive) | 1.58 µM (inactive) | 24.4 µM (inactive) | 16.6 µM (inactive) | 13.4 µM (inactive) | 6.62 µM (inactive) | 15.4 µM (inactive) | 15.3 µM (inactive) | –
13 | O=C(/C=C/c1ccccc1)Oc1cccc(Br)c1 | 69.8 µM (inactive) | > 100 µM (inactive) | 64.1 µM (inactive) | 89.9 µM (inactive) | 48.3 µM (inactive) | 25.6 µM (inactive) | 30.5 µM (inactive) | 17.7 µM (inactive) | 20.5 µM (inactive) | > 100 µM (inactive) | 5.68 µM (inactive) | 78.2 µM (inactive) | 14.1 µM (inactive) | 24.4 µM (inactive) | > 100 µM (inactive) | 45.3 µM (inactive) | 53.3 µM (inactive) | > 100 µM (inactive) | 74 µM (inactive) | –
14 | CC(=O)CCCCn1c(=O)c2c(nc(Br)n2C)n(C)c1=O | > 100 µM (inactive) | > 100 µM (inactive) | > 100 µM (inactive) | > 100 µM (inactive) | 28.3 µM (inactive) | > 100 µM (inactive) | > 100 µM (inactive) | 44.2 µM (inactive) | > 100 µM (inactive) | > 100 µM (inactive) | 10.4 µM (inactive) | > 100 µM (inactive) | > 100 µM (inactive) | > 100 µM (inactive) | > 100 µM (inactive) | > 100 µM (inactive) | > 100 µM (inactive) | > 100 µM (inactive) | > 100 µM (inactive) | –
15 | COC(=O)CCNC(=O)OCc1ccccc1 | > 100 µM (inactive) | > 100 µM (inactive) | > 100 µM (inactive) | > 100 µM (inactive) | > 100 µM (inactive) | > 100 µM (inactive) | > 100 µM (inactive) | > 100 µM (inactive) | > 100 µM (inactive) | > 100 µM (inactive) | > 100 µM (inactive) | > 100 µM (inactive) | > 100 µM (inactive) | > 100 µM (inactive) | > 100 µM (inactive) | > 100 µM (inactive) | > 100 µM (inactive) | > 100 µM (inactive) | > 100 µM (inactive) | –
